# Legend:
# Assay type in all cases: functional, cell-based
# Raji = test: Cytotoxicity against Homo sapiens (human) Raji cells after 96 hr by MTT assay
# [1] = Cytotoxicity against Homo sapiens (human) LS180 cells after 96 hr by MTT assay; settings: LS180, 96 h
# HeLa = test: Cytotoxicity against Homo sapiens (human) HeLa cells after 96 hr by MTT assay
# MCF7 = test: Cytotoxicity against Homo sapiens (human) MCF7 cells after 96 hr by MTT assay; settings: MCF7, 96 h
SMILES,IC16 (Raji),IC50 (Raji),IC16 [1],IC50 [1],IC16 (HeLa),IC50 (HeLa),IC16 (MCF7),IC50 (MCF7)
Cc1ccc(C2C3=C(CCCC3=O)Oc3c2c(=O)oc2ccccc32)cc1 (stereo not drawn),8.5 µM,78.9 µM,74.2 µM,> 100 µM,38.8 µM,> 100 µM,49.2 µM,> 100 µM
COc1cccc2c1C(=O)c1c(O)c3c(c(O)c1C2=O)C[C@@](O)(C(=O)CO)C[C@@H]3O[C@H]1C[C@H](N)[C@H](O)[C@H](C)O1 [DOXORUBICIN],0.012 µM,0.039 µM,0.03 µM,0.13 µM,0.015 µM,0.053 µM,0.051 µM,0.211 µM
O=C1CCCC2=C1C(c1ccc(Cl)cc1)c1c(c3ccccc3oc1=O)O2 (stereo not drawn),59 µM,> 100 µM,> 100 µM,> 100 µM,17.9 µM,55.8 µM,54.7 µM,> 100 µM
COc1ccccc1C1C2=C(CCCC2=O)Oc2c1c(=O)oc1ccccc21 (stereo not drawn),30.3 µM,> 100 µM,52.1 µM,> 100 µM,37.6 µM,74.3 µM,> 100 µM,> 100 µM
O=C1CCCC2=C1C(c1cccc(Br)c1)c1c(c3ccccc3oc1=O)O2 (stereo not drawn),11.3 µM,49.3 µM,35.1 µM,83.8 µM,21.9 µM,61.6 µM,> 50 µM,> 50 µM
Cc1cccc(C2C3=C(CCCC3=O)Oc3c2c(=O)oc2ccccc32)c1 (stereo not drawn),26.7 µM,72.7 µM,47 µM,> 100 µM,41.7 µM,> 100 µM,42.8 µM,> 100 µM
O=C1CCCC2=C1C(c1ccccc1Cl)c1c(c3ccccc3oc1=O)O2 (stereo not drawn),> 25 µM,> 25 µM,> 25 µM,> 25 µM,> 25 µM,> 25 µM,> 25 µM,> 25 µM
O=C1CCCC2=C1C(c1ccccc1[N+](=O)[O-])c1c(c3ccccc3oc1=O)O2 (stereo not drawn),14.9 µM,54.8 µM,> 100 µM,> 100 µM,18.1 µM,> 100 µM,28 µM,59.5 µM
COc1ccc(C2C3=C(CCCC3=O)Oc3c2c(=O)oc2ccccc32)cc1 (stereo not drawn),33.1 µM,> 100 µM,100 µM,> 100 µM,48.7 µM,97.9 µM,35.9 µM,76.3 µM
Cc1ccccc1C1C2=C(CCCC2=O)Oc2c1c(=O)oc1ccccc21 (stereo not drawn),26.4 µM,79.7 µM,53.8 µM,> 100 µM,42.9 µM,> 100 µM,30.9 µM,> 100 µM
O=C1CCCC2=C1C(c1cccc([N+](=O)[O-])c1)c1c(c3ccccc3oc1=O)O2 (stereo not drawn),55.8 µM,> 100 µM,60.9 µM,> 100 µM,26.2 µM,63.1 µM,23.1 µM,80.3 µM
O=C1CCCC2=C1C(c1ccc([N+](=O)[O-])cc1)c1c(c3ccccc3oc1=O)O2 (stereo not drawn),47.7 µM,> 100 µM,32.6 µM,75.7 µM,> 100 µM,> 100 µM,26 µM,61.7 µM
O=C1CCCC2=C1C(c1ccccc1Br)c1c(c3ccccc3oc1=O)O2 (stereo not drawn),> 100 µM,> 100 µM,> 100 µM,> 100 µM,> 100 µM,> 100 µM,> 100 µM,> 100 µM
COc1cccc(C2C3=C(CCCC3=O)Oc3c2c(=O)oc2ccccc32)c1 (stereo not drawn),13.1 µM,49.2 µM,48.9 µM,99.7 µM,25.3 µM,89.9 µM,22.2 µM,58.6 µM
O=C1CCCC2=C1C(c1cccc(Cl)c1)c1c(c3ccccc3oc1=O)O2 (stereo not drawn),23.9 µM,> 50 µM,> 50 µM,> 50 µM,> 50 µM,> 50 µM,> 50 µM,> 50 µM
O=C1CCCC2=C1C(c1ccc(Br)cc1)c1c(c3ccccc3oc1=O)O2 (stereo not drawn),22.4 µM,82.4 µM,> 100 µM,> 100 µM,> 100 µM,> 100 µM,15.7 µM,49.3 µM

# — ChEMBL document CHEMBL3044684, “Synthesis and cytotoxic activity of novel benzopyrano[3,2-c]chromene-6,8-dione derivatives” (Med Chem Res, 2011)
